Entries after “also recorded” stand apart in the source; their conditions may differ. Read-outs that look alike come from different tables or passages of the source. Where a SMILES comes first, the peptide text is derived from it.
How the values were obtained:
[1] = target: T1, ExoU (Pseudomonas aeruginosa, UniProt O34208); assay: nanoDSF thermal stability of ExoU; assay type: binding; settings: 10 µM compound; for ΔTm at 10 µM: read-out: Decrease of ExoU Tm
Experimental: Thermal stability of recombinant His₆-ExoU was assessed using a Prometheus NT.48 instrument (NanoTemper Technologies, Cambridge, UK) without extrinsic dyes, as these were not compatible with the use of PIP2. ExoU was diluted to 5 µM in 20 mM TrisHCl-HCl (pH 8.2), 100 mM NaCl, and 10% (v/v) glycerol. To evaluate ligand effects, four samples were prepared: ExoU alone, ExoU with 5 µM PIP2, ExoU with 10 µM inhibitor, and ExoU with both 5 µM PIP2 and 10 µM indicated inhibitor, each maintaining 1% (v/v) DMSO. Ten microliters of each mixture were loaded into highsensitivity-sensitivity nanoDSF glass capillaries and subjected to a thermal ramp from 25 °C to 95 °C at 1 °C/min. Intrinsic tryptophan fluorescence emission at 330 nm and 350 nm was recorded continuously, and the ratio F₃₅₀/F₃₃₀ was plotted against temperature. Melting temperatures (Tₘ) were determined from the inflection point of the first derivative of the fluorescence ratio using the manufacturer’s analysis software. All conditions were measured in triplicate. Changes in melting temperature (Δ Tₘ) compared to DMSO, or DMSO PIP2 controls were plotted using GraphPad.
Supplementary file ppat.1014474.s008.tif: S7 Fig Nano differential scanning fluorimetry (nanoDSF) analysis of ExoU thermal stability in the presence of compounds. Raw melt curves of recombinant ExoU are shown in the absence (left) and presence (right) of PIP2 (5 µM) from three independent (A-C) experiments. Compounds were tested at 10 µM. Intrinsic tryptophan fluorescence emission was continuously monitored at 330 nm and 350 nm as the temperature increased, and the fluorescence ratio (F₃₅₀/F₃₃₀) was plotted against temperature. Melting temperatures (Tₘ) were calculated from the average inflection point of the first derivative of the fluorescence ratio using the manufacturer’s analysis software. (TIF)

[2] = system: P. aeruginosa PA103; settings: read-out: IC50 of bacterial growth
[3] = system: primary human corneal epithelial cells
[4] = target: T1, ExoU; assay: ExoU in vitro phospholipase assay (real-time, dose-response); assay type: biochemical; settings: for Inhibition of ExoU phospholipase activity (in words): real-time phospholipase assay, Fig 2A, 2B, 2E
[5] = in vitro; settings: human, primary human corneal (limbal) epithelial cells
[6] = system: PA103-infected HCE-T cells; assay: LDH release assay in PA103-infected scratched HCE-T cells; assay type: cell-based, human; settings: 2.5 µM compound, PA103 MOI 10, 4 hours, S6 Fig
From the text: Percentage lysis was normalized to the maximal LDH release from the kit positive control (CyQUANT; Thermo Fisher). (TIF)

[7] = target: T2, human PLA2G7 (Homo sapiens, UniProt Q13093); assay: Human phospholipase assay, 2-thio-PAF substrate; assay type: biochemical; settings: 10 µM, S4 Fig
T2 construct: 6xHis (N); made in house; host or cells: E. coli C43(DE3)
T2 sequence (Q13093 22-441): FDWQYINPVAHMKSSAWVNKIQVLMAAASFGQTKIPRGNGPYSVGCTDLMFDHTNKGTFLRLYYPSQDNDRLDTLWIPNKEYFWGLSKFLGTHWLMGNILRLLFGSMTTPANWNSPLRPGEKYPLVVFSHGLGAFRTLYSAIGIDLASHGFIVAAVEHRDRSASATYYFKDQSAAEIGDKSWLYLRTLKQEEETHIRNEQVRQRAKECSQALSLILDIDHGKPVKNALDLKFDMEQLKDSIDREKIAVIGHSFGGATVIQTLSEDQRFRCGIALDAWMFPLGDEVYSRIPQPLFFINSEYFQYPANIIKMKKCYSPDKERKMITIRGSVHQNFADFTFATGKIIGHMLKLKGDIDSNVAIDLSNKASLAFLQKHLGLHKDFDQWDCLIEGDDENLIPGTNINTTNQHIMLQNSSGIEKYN

[8] = target: T1, ExoU; assay: BS3 cross-linking and SDS-PAGE of ExoU oligomerisation; settings: 10 µM inhibitor
Experimental: Four reaction mixtures (50 µL each) were prepared at room temperature: ExoU alone; ExoU with 5 µM PIP2; ExoU with 10 µM inhibitor; and ExoU with both 5 µM PIP2 and 10 µM inhibitor for 30 minutes at 25 °C. […] Reactions were quenched by addition of Tris HCl pH 7.4 to 50 mM and a further 15 min incubation at room temperature. […] Membranes were blocked in TBST containing 5% (w/v) non-fat milk for 1 h, then incubated overnight at 4 °C with mouse anti-His monoclonal antibody (Bio Rad; 1:2,000). After washing in TBST, membranes were incubated with HRP-conjugated goat anti-mouse IgG for 1 h at room temperature. Signal was detected by chemiluminescence with X ray film exposure, and band patterns were analysed to determine the distribution of monomeric and oligomeric ExoU species under each condition.

[9] = system: T3SS gene expression in P. aeruginosa PA103 and PAO1; assay: Quantitative RT-PCR of T3SS gene expression; assay type: cell-based, Pseudomonas aeruginosa; settings: Bis 10 µM, Zp 2.5 µM, Pol 1 µM in LB
[10] = system: EGFP-tagged ExoU (S142A); assay: EGFP-ExoU (S142A) abundance and lysosome colocalisation in transfected HEK293T cells
[11] = system: P. aeruginosa PA103; design: species or system porcine; settings: 48 hours
[12] = target: T3, PLA2G4C (Homo sapiens, UniProt Q9UP65); assay: Human phospholipase assay, thio-BGPC substrate; assay type: biochemical; settings: 10 µM, S4 Fig
T3 construct: 6xHis (N); made in house; host or cells: E. coli C43(DE3)
T3 sequence (Q9UP65 1-541): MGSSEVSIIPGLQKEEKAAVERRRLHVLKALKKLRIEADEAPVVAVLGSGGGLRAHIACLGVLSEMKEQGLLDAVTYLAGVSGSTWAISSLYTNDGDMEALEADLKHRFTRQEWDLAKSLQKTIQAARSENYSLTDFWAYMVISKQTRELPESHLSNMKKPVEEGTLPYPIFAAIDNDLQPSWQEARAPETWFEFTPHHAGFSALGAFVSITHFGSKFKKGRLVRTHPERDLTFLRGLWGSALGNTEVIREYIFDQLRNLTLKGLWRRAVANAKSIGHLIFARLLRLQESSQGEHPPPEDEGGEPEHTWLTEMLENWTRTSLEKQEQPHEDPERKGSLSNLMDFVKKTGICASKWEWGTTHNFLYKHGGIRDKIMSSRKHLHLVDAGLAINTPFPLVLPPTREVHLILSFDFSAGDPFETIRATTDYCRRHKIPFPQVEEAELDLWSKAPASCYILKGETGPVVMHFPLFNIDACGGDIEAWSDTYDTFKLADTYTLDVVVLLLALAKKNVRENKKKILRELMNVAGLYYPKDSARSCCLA
Experimental: Recombinant human PLA2G7 and PLA2G4C activities were measured in 96well, -well, UVtransparent microplates (Corning) in a final volume of 50 µL per well. Reactions were carried out in 20 mM […] TrisHCl-HCl (pH 8.2), 100 mM NaCl, and 0.01% Tween 20, with a 1% (v/v) final DMSO concentration. For PLA2G7, substrate cleavage was monitored using 0.6 mM 2-thio-PAF (Cambridge Bioscience Ltd), and for PLA2G4C, 0.6 mM arachidonoyl thio-bis-glycerophosphocholine (thioBGC-BGC; Cambridge Bioscience Ltd) was employed. In both assays, 1 mM DTNB (5,5′-dithiobis-(2nitrobenzoic acid), -nitrobenzoic acid), SigmaAldrich-Aldrich) served as the chromogenic reporter. Enzyme (500 nM final) was preequilibrated with buffer at 25 °C for 5 min before initiating-equilibrated with buffer at 25 °C for 5 min before initiating the reaction by substrate addition. Absorbance at 414 nm was recorded every minute for 1 h on a Hidex plate reader.
(B) ExoU activity was assessed using arachidonoyl thio-phosphatidylcholine (thio-PC) in the presence of 10 µM of the indicated compound. […] (TIF)

[13] = system: P. aeruginosa PA103; assay type: in vivo, Galleria mellonella
[14] = system: HCE-T cells infected with exoU⁺ clinical P. aeruginosa keratitis isolates; assay: CellDiscoverer 7 high-content screen, exoU+ isolates; assay type: cell-based, human; settings: 4.5 h post-infection; Bis 10 µM, Zp 2.5 µM, Pol 1 µM; DMSO ~43%
[15] = Fig 1B dose-response, PIP2 and ubiquitin present, read-out: IC50 for ExoU inhibition in vitro
[16] = Fig 3C, three-parameter fit, read-out: IC50 for ExoU inhibition, individual inhibitors or equimolar combinations
[17] = Fig 2C dose-response phospholipase assays, read-out: IC50 of bismuth-based ExoU inhibitors and subcitrate alone

CC[C@H](C)CCCCC(=O)N[C@@H](CCN)C(=O)N[C@H](C(=O)N[C@@H](CCN)C(=O)N[C@H]1CCNC(=O)[C@H]([C@@H](C)O)NC(=O)[C@H](CCN)NC(=O)[C@H](CCN)NC(=O)[C@H](CC(C)C)NC(=O)[C@@H](Cc2ccccc2)NC(=O)[C@H](CCN)NC1=O)[C@@H](C)O [Pol, polymyxin B] (HELM PEPTIDE1{[CC[C@H](C)CCCCC(=O)[*:2]].[Dab].T.[Dab].[Dab].[Dab].[dF].L.[Dab].[Dab].T}$PEPTIDE1,PEPTIDE1,5:R3-11:R2$$$V2.0)
ΔTm at 10 µM ([1]; absence of PIP2): -3.8 °C
ΔTm at 10 µM ([1]; with 5 µM PIP2): -6.2 °C
IC50 ([2]; in DMEM/F-12 supplemented with 10% (v/v) FBS): 2.1 µM
IC50 ([2]; in LB): 0.75 µM
LD50 (LDH release) [3]: 42.5 ± 10.6 µM
IC50 [4, 15]: 13.1 ± 1.7 µM
IC50 [4, 16]: 11.6 ± 0.9 µM
IC50 ([4]; IC50 for ExoU inhibition, polymyxin B and poltide analogues, Fig 2E): 13 µM
CC50 at 48 h [5]: 43 µM

O=S(=O)([O-])[O-].[Zn+2] [zinc sulphate]
Inhibition of ExoU phospholipase activity (in words) [4]: inhibited ExoU phospholipase activity
Mean lysis (LDH release) [6]: 89%

CC(=O)Oc1ccc(C(=C2CCCCC2)c2ccc(OC(C)=O)cc2)cc1 [cyclofenil]
IC50 [4, 15]: 20.2 ± 2.8 µM

lauric acid–Asp–Thr–Dab [Poltide 2]
IC50 for ExoU inhibition, polymyxin B and poltide analogues ([4]; Fig 2E): no effect on ExoU activity

CCN(CC)CCN(Cc1ccc(-c2ccc(C(F)(F)F)cc2)cc1)C(=O)Cn1c(SCc2ccc(F)cc2)nc(=O)c2c1CCC2 [darapladib]
ExoU activity with arachidonoyl thio-PC substrate ([4]; 10 µM compound, S4 Fig): did not inhibit ExoU activity

O=C([O-])CC(O)(CC(=O)[O-])C(=O)[O-].O=C([O-])CC(O)(CC(=O)[O-])C(=O)[O-].[Bi+3].[K+].[K+].[K+] [Bis, bismuth subcitrate]
Inhibition of PLA2G7 enzymatic activity [7]: neither Bis, Pol, nor Zp inhibited enzymatic activity
Migration of BS3 cross-linked ExoU on SDS-PAGE ([8]; with PIP2): single discrete high‐molecular‐weight band
Migration of BS3 cross-linked ExoU on SDS-PAGE ([8]; without PIP2): did not alter this profile
Decrease of ExoU Tm ([1]; absence of PIP2): no measurable effect
Decrease of ExoU Tm ([1]; with 5 µM PIP2): ~ 2 °C
Expression of exsA, pcrV, exoU in PA103, or exsA, pcrV, exoS in PAO1 [9]: no significant changes
Level of EGFP-tagged ExoU (S142A) by Western blot ([10]; 5 µM, 16 h): substantially reduced
EGFP-ExoU (S142A) fluorescence and localisation (confocal) ([10]; 16 h): marked reduction; also recorded: redistributed into punctate structures that co-localised with RFP-LAMP1
Pearson's correlation coefficient r, ExoU-lysosome (RFP-LAMP1) colocalisation ([10]; 16 h compound treatment, DMSO r = 0.05): 0.49
Histology (H&E) of infected corneas [11]: partial epithelial preservation and less stromal damage
Corneal opacity ([11]; Bis 5 µM, Zp 2.5 µM, Pol 1 µM topical): performing slightly better than Zp
Inhibition of PLA2G4C [12]: no inhibition
IC50 [4, 15]: 12.8 ± 1 µM
IC50 [4, 17]: 9.9 µM
IC50 [4, 16]: 13.3 ± 2.9 µM
Clinical score: mean±SD (health score 0-9) ([13]; PA103 1 × 10⁵ CFU, Bis 0.1 mg/g, Zp 0.01 mg/g, Pol 0.004 mg/g, 40 h): 4.17 ± 3.89
Median survival ([13]; PA103-infected larvae, PA103 alone 16): 16 h
Delay of disease progression ([13]; in a subset of larvae): approximately 8 h
Mean live-cell area relative to non-infected controls [14]: 55.8%

On1ccccc1=S.On1ccccc1=S.[Cu] [copper pyrithione]
Inhibition of ExoU phospholipase activity (in words) [4]: Neither copper pyrithione, nor pyrithione inhibited ExoU

subcitrate
IC50 of bismuth-based ExoU inhibitors and subcitrate alone ([4]; Fig 2C dose-response phospholipase assays): No inhibition

COc1cc2c(cc1OC)[C@@H](Cc1cc(OC)c(OC)c(OC)c1)[N+](C)(CCCOC(=O)CC/C=C/CCC(=O)OCCC[N+]1(C)CCc3cc(OC)c(OC)cc3[C@H]1Cc1cc(OC)c(OC)c(OC)c1)CC2 (stereo partly shown) [mivacurium chloride]
IC50 [4, 15]: 6 ± 1.8 µM

CC[C@H](C)CCCCC(=O)O [(S)-6-methyloctanoic acid]
Inhibition of ExoU phospholipase activity (in words) [4]: failed to inhibit ExoU

[O-][n+]1ccccc1S [pyrithione]
Inhibition of ExoU phospholipase activity (in words) [4]: Neither copper pyrithione, nor pyrithione inhibited ExoU

[H]/N=C(\N/C(=N/[H])NCCCCCCNC(=N)NC(=N)Nc1ccc(Cl)cc1)Nc1ccc(Cl)cc1 [chlorhexidine]
IC50 [4, 15]: 18.5 ± 3.3 µM

[Cl][Bi]([Cl])[Cl] [Bismuth chloride, bismuth chloride]
IC50 [4, 17]: 9.2 µM
